For one assay, the target named is human Factor XIa (Homo sapiens (Human), UniProt P03951). Briefly: Factor XIa Assay (fluorogenic substrate GPR-AFC). As to conditions: Factor XIa (FXIa). Format: biochemical.
The target in a further assay is Human plasma kallikrein (Homo sapiens (Human), UniProt P03952). Briefly: Kallikrein Assay (fluorogenic substrate Acetyl-K-P-R-AFC). Format: biochemical. Conditions: Plasma Kallikrein (PKal). The essentials:
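Ki is derived from IC50 with the Cheng-Prusoff equation, and IC50 from the inflection point of a four-parameter logistic curve. The rate of AFC release is read with 0.5 nM purified enzyme and […] substrate at room temperature or 37 °C.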

Some results are limits rather than exact numbers.

Chain of Human plasma kallikrein (P03952 391-638): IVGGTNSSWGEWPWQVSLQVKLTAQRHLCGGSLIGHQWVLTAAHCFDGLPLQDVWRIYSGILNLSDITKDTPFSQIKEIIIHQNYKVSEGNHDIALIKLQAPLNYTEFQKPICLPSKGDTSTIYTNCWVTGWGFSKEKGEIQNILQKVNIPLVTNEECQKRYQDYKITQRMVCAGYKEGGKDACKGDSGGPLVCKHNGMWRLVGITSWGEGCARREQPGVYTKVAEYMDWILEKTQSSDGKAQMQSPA
Chain of Human plasma kallikrein (P03952 20-390 partner): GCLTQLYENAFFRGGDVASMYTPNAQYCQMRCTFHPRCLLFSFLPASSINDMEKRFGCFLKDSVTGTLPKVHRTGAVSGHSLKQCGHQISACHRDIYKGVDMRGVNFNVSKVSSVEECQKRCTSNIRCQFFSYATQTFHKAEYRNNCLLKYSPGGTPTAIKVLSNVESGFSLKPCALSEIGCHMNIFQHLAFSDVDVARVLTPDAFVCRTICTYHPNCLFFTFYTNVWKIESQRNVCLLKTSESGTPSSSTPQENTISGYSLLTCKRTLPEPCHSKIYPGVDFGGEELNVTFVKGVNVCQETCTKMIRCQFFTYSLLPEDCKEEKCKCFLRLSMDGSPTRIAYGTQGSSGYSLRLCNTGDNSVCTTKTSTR
Chain of human Factor XIa (P03951 388-625 limits assumed): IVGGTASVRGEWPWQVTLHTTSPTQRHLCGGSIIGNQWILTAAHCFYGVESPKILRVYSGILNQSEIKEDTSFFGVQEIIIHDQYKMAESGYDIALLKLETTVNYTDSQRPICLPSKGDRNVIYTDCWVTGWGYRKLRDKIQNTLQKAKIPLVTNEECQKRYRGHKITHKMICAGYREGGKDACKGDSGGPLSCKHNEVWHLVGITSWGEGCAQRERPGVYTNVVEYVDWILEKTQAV
Chain of human Factor XIa (P03951 19-387 partner limits assumed): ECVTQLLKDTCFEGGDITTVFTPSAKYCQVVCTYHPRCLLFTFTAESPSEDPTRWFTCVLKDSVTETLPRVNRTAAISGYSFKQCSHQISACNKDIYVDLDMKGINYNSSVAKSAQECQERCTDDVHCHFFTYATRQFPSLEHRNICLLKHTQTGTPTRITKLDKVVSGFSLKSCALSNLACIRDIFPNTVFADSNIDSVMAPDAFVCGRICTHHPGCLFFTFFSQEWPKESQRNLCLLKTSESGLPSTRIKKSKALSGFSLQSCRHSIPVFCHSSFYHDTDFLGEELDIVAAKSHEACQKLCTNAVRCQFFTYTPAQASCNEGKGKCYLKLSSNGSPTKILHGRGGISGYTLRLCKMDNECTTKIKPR

The IC50 is the midpoint of a concentration-inhibition curve. A higher IC50 goes with weaker potency in that assay. With `Cc1ncc(-c2c(C(F)F)ccc(Cl)c2F)nc1C(=O)Nc1cnn(C(C)c2cnc(N3CCC(O)C3=O)nc2)c1` (single isomer, unassigned) [Example 87, 6-(3-Chloro-6-(difluoromethyl)-2-fluorophenyl)-N-(1-((S or R)-1-(2-((R or S)-3-hydroxy-2-oxopyrrolidin-1-yl)pyrimidin-5-yl)ethyl)-1H-pyrazol-4-yl)-3-methylpyrazine-2-carboxamide], the IC50 at human Factor XIa was greater than 10000 nM; against Human plasma kallikrein, 26.2 nM.
As to `CC(c1ccc(N2C[C@H]3C[C@H]3C2=O)nc1)n1cc(NC(=O)c2cncc(-c3c(C#N)ccc(Cl)c3F)n2)cn1` (single isomer, unassigned) [Example 89, 6-(3-Chloro-6-cyano-2-fluorophenyl)-N-(1-((S or R)-1-(6-((1R,5S)-2-oxo-3-azabicyclo[3.1.0]hexan-3-yl)pyridin-3-yl)ethyl)-1H-pyrazol-4-yl)pyrazine-2-carboxamide], the half-inhibitory concentration (IC50) on human Factor XIa was greater than 10000 nM; at Human plasma kallikrein, 31.3 nM.
Consider `CC(c1ccc(N2C[C@H]3C[C@H]3C2=O)nc1)n1cc(NC(=O)c2cncc(-c3c(C#N)ccc(Cl)c3F)n2)cn1` (single isomer, unassigned) [Example 90, 6-(3-Chloro-6-cyano-2-fluorophenyl)-N-(1-((R or S)-1-(6-((1R,SS)-2-oxo-3-azabicyclo[3.1.0]hexan-3-yl)pyridin-3-yl)ethyl)-1H-pyrazol-4-yl)pyrazine-2-carboxamide], for which the IC50 at human Factor XIa is greater than 10000 nM; against Human plasma kallikrein, 13.7 nM.
`Cc1cc(N2C[C@H]3C[C@H]3C2=O)ccc1C(C)n1cc(NC(=O)c2nc(-c3c(C(F)F)ccc(Cl)c3F)cnc2C)cn1` (single isomer, unassigned) [Example 97, 6-(3-Chloro-6-(difluoromethyl)-2-fluorophenyl)-3-methyl-N-(1-((S or R)-1-(2-methyl-4-((1R,5S)-2-oxo-3-azabicyclo[3.1.0]hexan-3-yl)phenyl)ethyl)-1H-pyrazol-4-yl)pyrazine-2-carboxamide]: the IC50 against human Factor XIa was greater than 10000 nM; against Human plasma kallikrein, 1.3 nM.
As to `Cc1cc(N2C[C@H]3C[C@H]3C2=O)ccc1C(C)n1cc(NC(=O)c2cncc(-c3c(C(F)F)ccc(Cl)c3F)n2)cn1` (single isomer, unassigned) [Example 98, 6-(3-Chloro-6-(difluoromethyl)-2-fluorophenyl)-N-(1-((S or R)-1-(2-methyl-4-((1R,5S)-2-oxo-3-azabicyclo[3.1.0]hexan-3-yl)phenyl)ethyl)-1H-pyrazol-4-yl)pyrazine-2-carboxamide], the IC50 at human Factor XIa is greater than 10000 nM; against Human plasma kallikrein, 1.4 nM.
Take `Cc1cc(N2C[C@H]3C[C@H]3C2=O)ccc1C(C)n1cc(NC(=O)c2cncc(-c3c(C(F)F)ccc(Cl)c3F)n2)cn1` (single isomer, unassigned) [Example 99, 6-(3-Chloro-6-(difluoromethyl)-2-fluorophenyl)-N-(1-((R or S)-1-(2-methyl-4-((1R,5S)-2-oxo-3-azabicyclo[3.1.0]hexan-3-yl)phenyl)ethyl)-1H-pyrazol-4-yl)pyrazine-2-carboxamide]: the IC50 at human Factor XIa turned out to be 2880 nM; against Human plasma kallikrein, 49.1 nM.
On to `Cc1nc(C(C)n2cc(NC(=O)c3nc(-c4c(C(F)F)ccc(Cl)c4F)cnc3C(F)F)cn2)cnc1N1C[C@H]2C[C@H]2C1=O` (single isomer, unassigned) [Example 100, 6-(3-Chloro-6-(difluoromethyl)-2-fluorophenyl)-3-(difluoromethyl)-N-(1-((S or R)-1-(6-methyl-5-((1R,5S)-2-oxo-3-azabicyclo[3.1.0]hexan-3-yl)pyrazin-2-yl)ethyl)-1H-pyrazol-4-yl)pyrazine-2-carboxamide], for which the IC50 at human Factor XIa was 2000 nM; against Human plasma kallikrein, 1.7 nM.
Taken in the same sequence, the figures for `Cc1nc(C(C)n2cc(NC(=O)c3nc(-c4c(C(F)F)ccc(Cl)c4F)cnc3C(F)F)cn2)cnc1N1C[C@H]2C[C@H]2C1=O` (single isomer, unassigned) [Example 101, 6-(3-Chloro-6-(difluoromethyl)-2-fluorophenyl)-3-(difluoromethyl)-N-(1-((R or S)-1-(6-methyl-5-((1R,5S)-2-oxo-3-azabicyclo[3.1.0]hexan-3-yl)pyrazin-2-yl)ethyl)-1H-pyrazol-4-yl)pyrazine-2-carboxamide] were 3950 nM and 0.6 nM.
The matching figures for `Cc1cc(C(C)n2cc(NC(=O)c3nc(-c4c(C(F)F)ccc(Cl)c4F)cnc3C)cn2)nnc1N1C[C@H]2C[C@H]2C1=O` (single isomer, unassigned) [Example 102, 6-(3-Chloro-6-(difluoromethyl)-2-fluorophenyl)-3-methyl-N-(1-((S or R)-1-(5-methyl-6-((1R,5S)-2-oxo-3-azabicyclo[3.1.0]hexan-3-yl)pyridazin-3-yl)ethyl)-1H-pyrazol-4-yl)pyrazine-2-carboxamide]: 739 nM and 0.7 nM.
For `Cc1cc(C(C)n2cc(NC(=O)c3nc(-c4c(C(F)F)ccc(Cl)c4F)cnc3C)cn2)nnc1N1C[C@H]2C[C@H]2C1=O` (single isomer, unassigned) [Example 103, 6-(3-Chloro-6-(difluoromethyl)-2-fluorophenyl)-3-methyl-N-(1-((R or S)-1-(5-methyl-6-((1R,5S)-2-oxo-3-azabicyclo[3.1.0]hexan-3-yl)pyridazin-3-yl)ethyl)-1H-pyrazol-4-yl)pyrazine-2-carboxamide], the results for the IC50 against human Factor XIa and against Human plasma kallikrein were 445 nM and 1.8 nM, respectively.
For `Cc1c(C(C)n2cc(NC(=O)c3cncc(-c4c(OC(F)F)ccc(Cl)c4F)n3)cn2)cnc(N2C[C@H]3C[C@H]3C2=O)c1C` (single isomer, unassigned) [Example 104, 6-(3-Chloro-6-(difluoromethoxy)-2-fluorophenyl)-N-(1-((S or R)-1-(4,5-dimethyl-6-((1R,5S)-2-oxo-3-azabicyclo[3.1.0]hexan-3-yl)pyridin-3-yl)ethyl)-1H-pyrazol-4-yl)pyrazine-2-carboxamide], the IC50 on human Factor XIa turned out to be 420 nM; on Human plasma kallikrein it was 1.2 nM.
With `Cc1c(C(C)n2cc(NC(=O)c3cncc(-c4c(OC(F)F)ccc(Cl)c4F)n3)cn2)cnc(N2C[C@H]3C[C@H]3C2=O)c1C` (single isomer, unassigned) [Example 105, 6-(3-Chloro-6-(difluoromethoxy)-2-fluorophenyl)-N-(1-((R or S)-1-(4,5-dimethyl-6-((1R,5S)-2-oxo-3-azabicyclo[3.1.0]hexan-3-yl)pyridin-3-yl)ethyl)-1H-pyrazol-4-yl)pyrazine-2-carboxamide], the IC50 at human Factor XIa is 101 nM; against Human plasma kallikrein, 0.6 nM.
Regarding `Cc1cc(C(C)n2cc(NC(=O)c3cc(-c4c(C(F)F)ccc(Cl)c4F)c[n+]([O-])c3)cn2)cnc1N1C[C@H]2C[C@H]2C1=O` (single isomer, unassigned) [Example 106, 5-(3-Chloro-6-(difluoromethyl)-2-fluorophenyl)-N-(1-((S or R)-1-(5-methyl-6-((1R,5S)-2-oxo-3-azabicyclo[3.1.0]hexan-3-yl)pyridin-3-yl)ethyl)-1H-pyrazol-4-yl)-1-(l1-oxidanyl)-114-pyridine-3-carboxamide], the IC50 against human Factor XIa worked out at 103 nM; at Human plasma kallikrein it was 1.4 nM.
